Experimental data: US4066768A, “Derivatives of 1-phenoxy-3-amino-propan-2-ol” (Cassella Farbwerke Mainkur Aktiengesellschaft, priority 1973, dated 1978)

Key:
[1] = biological target: T1, β2-receptors of the cardiovascular system (Canis lupus familiaris, UniProt P54833); assay: Inhibition of isoproterenol-induced alteration of peripheral (femoral artery) perfusion in anaesthetised dogs (β2-receptor inhibition); format: in vivo, mongrel dogs; conditions: for ED50: dog, iv, read-out: β2-receptor inhibition ED 50; for Relative β2-receptor inhibition (reference substance = 100): relative ED 50, dogs
T1 construct: from tissue; host or cells: femoral artery vascular bed of anaesthetised mongrel dogs, in vivo
Procedure: (§1) The blocking action of the compounds according to the invention on the β1-receptors of the heart and on the β2-receptors of the cardiovascular system was investigated as follows: the blood pressure in the left-hand ventricle was measured on mongrel dogs of both sexes under an anaesthesia by Chloralose-urethane-morphine and the pressure signal was continuously differentiated by means of an analogue computer (BRUSH Instruments, Cleveland/Ohio) and, inter alia, the rate of pressure increase (Dp/dt) was recorded. In addition, the perfusion of a femoral artery was measured by means of an electromagnetic flow-meter (Model […] of Messrs. Statham) and the perfusion was recorded in ml/minute. […] DUNLOP and […]: Selective blockade of adrenoceptive beta-receptors in the heart. Brit. J. Pharmac. Chemother. (1968) 32, 201-218). […] The higher this quotient is, the better the cardioselective action.

[2] = biological target: T2, β1-receptors of the heart (Canis lupus familiaris, UniProt P79148); assay: Inhibition of isoproterenol-induced increase in rate of pressure rise (Dp/dt max.) in left ventricle of anaesthetised dogs (β1-receptor inhibition); format: in vivo, mongrel dogs; conditions: for ED50: dog, iv, read-out: β1-receptor inhibition ED 50; for Quotient: ED 50 of β2-receptor inhibition / ED 50 of β1-receptor inhibition / Relative quotient, on basis of reference substance = 1 / Relative β1-receptor inhibition (reference substance = 100): dogs; for Quotient: ED 50 of β2-receptor inhibition / ED 50 of β1-receptor inhibition: cardioselectivity, higher = better; for Relative quotient, on basis of reference substance = 1: relative cardioselectivity factor; for Relative β1-receptor inhibition (reference substance = 100): relative ED 50, lower = more active
T2 construct: from tissue; host or cells: heart (left ventricle) of anaesthetised mongrel dogs, in vivo
Procedure: as §1

cardiac β1-receptors = assay: Inhibition of isoproterenol-induced increase in heart rate in anaesthetized guinea pigs (β1-receptor inhibition); format: in vivo; conditions: for β1-receptor inhibition, parameter: heart rate response to isoproterenol: ED-50: i.v., guinea pigs anaesthetized with urethane, isoproterenol 0.5 gamma/animal
Procedure: The isoproterenol-induced increase in heart rate in anaesthetized animals represents mainly the response of the cardiac β1-receptors. The dose of the antagonists (mg/kg i.v.) which inhibits this response of isoproterenol (0.5 gamma/animal) in guinea pigs, anaesthetized with urethane, by 50% : ED-50 was determined.

tracheal β2-receptors = biological target: T3, tracheal β2-receptors (Cavia porcellus, UniProt Q8K4Z4); assay: Inhibition of isoproterenol-induced relaxation of contracted isolated tracheal chain (β2-receptor inhibition); design: species or system guinea pigs
T3 construct: isolated tracheal chain of guinea pigs; from tissue; host or cells: isolated guinea pig tracheal chain
Procedure: The isoproterenol-induced relaxation of contracted isolated tracheal chain of guinea pigs represents the response of the tracheal β2-receptors. The bath concentrations of the antagonists which reduce the isoproterenol effects by 50% were determined: ED-50 : g/ml bath.

T2 sequence (P79148 whole entry): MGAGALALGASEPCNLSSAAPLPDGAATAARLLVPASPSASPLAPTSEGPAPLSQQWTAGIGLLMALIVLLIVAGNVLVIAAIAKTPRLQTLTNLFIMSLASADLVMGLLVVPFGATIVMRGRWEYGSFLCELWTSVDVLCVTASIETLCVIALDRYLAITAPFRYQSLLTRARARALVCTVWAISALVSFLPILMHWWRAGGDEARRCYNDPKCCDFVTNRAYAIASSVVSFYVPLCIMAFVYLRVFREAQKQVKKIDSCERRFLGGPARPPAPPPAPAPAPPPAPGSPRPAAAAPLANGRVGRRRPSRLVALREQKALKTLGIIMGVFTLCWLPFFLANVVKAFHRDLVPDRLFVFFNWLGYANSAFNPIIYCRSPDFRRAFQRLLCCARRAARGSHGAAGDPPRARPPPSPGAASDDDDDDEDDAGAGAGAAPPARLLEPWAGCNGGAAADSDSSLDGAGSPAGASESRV
T1 sequence (P54833 whole entry, the tested form may be a part): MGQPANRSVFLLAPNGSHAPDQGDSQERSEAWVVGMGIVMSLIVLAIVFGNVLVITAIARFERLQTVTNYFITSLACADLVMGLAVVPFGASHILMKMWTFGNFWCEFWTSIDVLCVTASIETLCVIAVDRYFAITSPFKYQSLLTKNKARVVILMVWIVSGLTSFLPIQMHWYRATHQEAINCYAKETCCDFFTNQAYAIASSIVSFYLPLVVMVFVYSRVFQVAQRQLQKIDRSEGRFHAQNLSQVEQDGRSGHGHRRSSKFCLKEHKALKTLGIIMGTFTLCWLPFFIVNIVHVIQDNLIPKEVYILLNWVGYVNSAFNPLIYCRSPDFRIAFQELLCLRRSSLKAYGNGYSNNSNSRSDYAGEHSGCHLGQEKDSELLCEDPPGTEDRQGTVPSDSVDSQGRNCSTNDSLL
T3 sequence (Q8K4Z4 whole entry): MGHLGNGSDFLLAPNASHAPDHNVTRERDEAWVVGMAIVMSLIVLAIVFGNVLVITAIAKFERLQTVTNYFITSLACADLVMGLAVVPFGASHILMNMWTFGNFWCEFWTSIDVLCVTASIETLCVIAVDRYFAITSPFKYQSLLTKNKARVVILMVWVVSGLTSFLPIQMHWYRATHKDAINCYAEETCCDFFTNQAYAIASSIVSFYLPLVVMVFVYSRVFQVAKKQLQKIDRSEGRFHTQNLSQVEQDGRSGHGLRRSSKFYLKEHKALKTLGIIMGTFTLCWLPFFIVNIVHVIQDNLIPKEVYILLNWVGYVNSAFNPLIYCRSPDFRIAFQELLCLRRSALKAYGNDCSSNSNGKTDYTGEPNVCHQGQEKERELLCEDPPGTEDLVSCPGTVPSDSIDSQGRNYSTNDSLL

Structure (SMILES) | ED50 [1] | Relative β2-receptor inhibition (reference substance = 100) [1] | ED50 [2] | Quotient: ED 50 of β2-receptor inhibition / ED 50 of β1-receptor inhibition [2] | Relative quotient, on basis of reference substance = 1 [2] | Relative β1-receptor inhibition (reference substance = 100) [2] | Relative β1-receptor inhibition (reference substance = 100) (cardiac β1-receptors; heart rate, guinea pigs) | β1-receptor inhibition, parameter: heart rate response to isoproterenol: ED-50 (cardiac β1-receptors) | IC50 (tracheal β2-receptors; bath concentration reducing isoproterenol effects by 50%, guinea pig trachea, read-out: β2-receptor inhibition, parameter: isolated tracheal chain: ED-50 (converted)) | Relative β2-receptor inhibition (reference substance = 100) (tracheal β2-receptors; isolated tracheal chain, guinea pigs)
Cc1ccc(C(O)CC(C)NCC(O)COc2ccc(OCCO)cc2)cn1 (centres unmarked) [1-(-p-[2-Hydroxy-ethoxy]-henoxy)-3-(1-[2-methyl-pyridyl-5]-1-hydroxy-butyl(3)-amino)-propan-2-ol] | 8.14 mg/kg | 30.7 | 0.073 mg/kg | 112 | 1 | 30.7 |  |  |  | 
C=CCNC(=O)Nc1ccc(OCC(O)CNC(C)CC(O)c2cnc(C)nc2C)cc1 (centres unmarked) [1-(p-Allylureido-phenoxy)-3-(1-[2,4-dimethyl-pyrimidyl-5]-1-hydroxy-butyl(3)-amino)-propan-2-ol] |  |  | 0.019 mg/kg |  |  | 7.9 |  |  |  | 
Cc1ncc(C(O)CC(C)NCC(O)COc2ccc(NC(=O)NC3CCCCC3)cc2)c(C)n1 (centres unmarked) [1-(p-Cyclohexylureido-phenoxy)-3-(1-[2,4-dimethyl-pyrimidyl-5] -1-hydroxy-butyl(3)-amino)-propan-2-ol] | 1.38 mg/kg | 5.2 | 0.011 mg/kg | 128 | 1.1 | 4.6 |  |  |  | 
Cc1ccc(C(O)CC(C)NCC(O)COc2ccc(NC(=O)NC3CCCCC3)cc2)cn1 (centres unmarked) [1-(p-Cyclohexylureido-phenoxy)-3-(1-[2-methyl-pyridyl-5]-1-hydroxy-butyl(3)-amino)-propan-2-ol] | 1.57 mg/kg | 5.9 | 0.006 mg/kg | 245 | 2.4 | 2.5 |  |  |  | 
CC(CC(O)c1cccnc1)NCC(O)COc1ccc(NC(=O)NC2CCCCC2)cc1 (centres unmarked) [1-(p-Cyclohexylureidophenoxy)-3-(1-hydroxy-1-pyridyl-(3)-butyl3-amino)-propan-2-ol] | 1.02 mg/kg | 3.8 | 0.003 mg/kg | 409 | 2.9 | 1.3 |  |  |  | 
CCOCCOc1ccc(OCC(O)CNC(C)CC(O)c2cccnc2)cc1 (centres unmarked) [1-(p-Ethoxyethoxy-phenoxy)-3-(1-[pyridyl-3]-1-hydroxy-butyl(3)-amino)-propan-2-ol] | 2.76 mg/kg | 10.1 | 0.009 mg/kg | 296 | 2.7 | 3.8 |  |  |  | 
CCOCc1ccc(OCC(O)CNC(C)CC(O)c2cnc(C)nc2C)cc1 (centres unmarked) [1-(p-Ethoxymethylene-phenoxy)-3-(1-[2,4-dimethyl-pyrimidyl-5]-1-hydroxy-butyl(3)-amino)-propan-2-ol] | 2.88 mg/kg | 10.7 | 0.019 mg/kg | 144 | 1.4 | 7.9 |  |  |  | 
CCOCc1ccc(OCC(O)CNC(C)CC(O)c2cccnc2)cc1 (centres unmarked) [1-(p-Ethoxymethylene-phenoxy)-3-(1-[pyridyl-3]-1-hydroxy-butyl(3)-amino)-propan-2-ol] |  |  | 0.01 mg/kg |  |  | 4.2 |  |  |  | 
CCNC(=O)Nc1ccc(OCC(O)CNC(C)CC(O)c2cnc(C)nc2C)cc1 (centres unmarked) [1-(p-Ethylureido-phenoxy)-3-(1-[2,4-dimethyl-pyrimidyl-5-]-1-hydroxy-butyl(3)-amino)-propan-2-ol] | 12.8 mg/kg | 48.3 | 0.093 mg/kg | 137 | 1.2 | 39.1 |  |  |  | 
CCNC(=O)Nc1ccc(OCC(O)CNC(C)CC(O)c2cccnc2)cc1 (centres unmarked) [1-(p-Ethylureido-phenoxy)-3-(1-[pyridyl-3]-1-hydroxy-butyl(3)-amino)-propan-2-ol] |  |  | 0.013 mg/kg |  |  | 5.5 |  |  |  | 
Cc1ncc(C(O)CC(C)NCC(O)COc2ccc(NC(=O)NC(C)C)cc2)c(C)n1 (centres unmarked) [1-(p-Isopropylureido- -phenoxy)-3-(1-[2,4-dimethyl-pyrimidyl-5]-1-hydroxy-butyl(3)-amino)-propan-2-ol] | 2.71 mg/kg | 10.2 | 0.022 mg/kg | 124 | 1.1 | 9.2 |  |  |  | 
COCCCCOc1ccc(OCC(O)CNC(C)CC(O)c2cnc(C)nc2C)cc1 (centres unmarked) [1-(p-Methoxybutoxy-phenoxy)-3-(1-[2,4-dimethyl-pyrimidyl-5]-hydroxy-butyl(3)-amino)-propan-2-ol] | 16 mg/kg | 58.8 | 0.089 mg/kg | 176 | 1.6 | 37.4 |  |  |  | 
CCCOCCOc1ccc(OCC(O)CNC(C)CC(O)c2ccc(C)nc2)cc1 (centres unmarked) [1-(p-[2-n-propoxy-ethoxy]-phenoxy)-3-(1-[2-methyl-pyridyl-5]-1-hydroxy-butyl(3)-amino)-propan-2-ol] | 5.1 mg/kg | 19.2 | 0.035 mg/kg | 146 | 1.3 | 14.7 | 3.39 | 0.177 mg/kg | 6.94 µM | 7.7
CC(=O)Nc1ccc(OCC(O)CNC(C)C)cc1 (centres unmarked) [4-(2-Hydroxy-3-isopropylamino-propoxy)-acetanilide, reference compound] |  |  |  |  |  |  |  | 5.3 mg/kg |  | 
